Laboratory results taken from the RepoRT retention time repository.
Counter-ions that a name gives are not always drawn.

Experiment: HILIC, Merck SeQuant ZIC-HILIC, 25 °C, 0.25 mL/min; A: water + 16 mM ammonium formate; B: acetonitrile + 0.1% formic acid, pH 3; gradient (min/%B) 0/97 2/97 10/70 15/10 17/10 18/97 25/97
Conditions: stereoisomer not certain

| LC retention time | SMILES |
| --- | --- |
| 1.98 min | CC(CCC(=O)O)C1CCC2C3CCC4CC(O)CCC4(C)C3CC(O)C12C (stereo not given) [deoxycholic acid] |
| 15.7 min | O=P(O)(O)OCC1OC(OP(=O)(O)OP(=O)(O)O)C(O)C1O (stereo not given) [PHOSPHORIBOSYL PYROPHOSPHATE] |
| 2.12 min | O=C(O)CNC(=O)c1ccccc1 [HIPPURATE] |
| 11.8 min | Cc1ncc(COP(=O)(O)O)c(C=O)c1O [PYRIDOXAL-PHOSPHATE] |
| 14.1 min | OCC1OC(OC2OC(CO)C(O)C(O)C2O)C(O)C(O)C1O (stereo not given) [TREHALOSE] |
| 10.2 min | CC(C)CC(=O)OC(CC(=O)[O-])C[N+](C)(C)C [Isovaleryl-L-carnitine] |
| 2.08 min | CC(=O)NC(C(=O)O)C(C)C (racemic) [N-acetyl-DL-valine] |
| 2.24 min | O=c1cc[nH]c(=O)[nH]1 [URACIL] |
| 14.1 min | CCC(NC(=O)CCC(N)C(=O)O)C(=O)NCC(=O)O (stereo not given) [OPHTHALMATE] |
| 5.36 min | O=C(O)C(O)Cc1ccc(O)cc1 (stereo not given) [HYDROXYPHENYLLACTATE] |
| 14.1 min | NC(=O)CC[C@H](N)C(=O)O [L-Glutamine] |
| 2.14 min | Cc1c[nH]c(=O)[nH]c1=O [THYMINE] |
| 1.91 min | O=C(O)CCCCCCC(=O)O [SUBERATE] |
| 4.93 min | CC(=O)NCC(=O)O [N-ACETYLGLYCINE] |
| 12.4 min | NC(CCS)C(=O)O (stereo not given) [HOMOCYSTEINE] |
| 14.1 min | O=P(O)(O)OCC(O)CO (stereo not given) [GLYCEROL 3-PHOSPHATE] |
| 10 min | O=CCc1c[nH]c2ccccc12 [INDOLEACETALDEHYDE] |
| 1.52 min | COC1=C(OC)C(=O)C(CC=C(C)CCC=C(C)C)=C(C)C1=O [coenzyme Q2] |

| LC retention time | SMILES |
| --- | --- |
| 8.33 min | CC(=O)NC(CO)C(=O)O (stereo not given) [N-ACETYLSERINE] |
| 2.15 min | CC(=O)NCCc1c[nH]c2ccc(O)cc12 [N-ACETYLSEROTONIN] |
| 5.07 min | NC(N)=S [THIOUREA] |
| 1.52 min | CCCCCCCCC=CCCCCCCCCCCCCCC(=O)[O-] [NERVONATE] |
| 1.9 min | O=C(O)c1cccc[n+]1[O-] [Picolinic acid N-oxide] |
| 10.3 min | O=c1[nH]cnc2c1ncn2C1OC(CO)C(O)C1O (stereo not given) [INOSINE] |
| 2.16 min | O=c1c(O)c(-c2ccc(O)c(O)c2)oc2cc(O)cc(O)c12 [quercetine dihydrate] |
| 9 min | O=c1ccn(C2OC(CO)C(O)C2O)c(=O)[nH]1 (stereo not given) [URIDINE] |
| 13.9 min | CC(=O)NC1C(O)CC(O)(C(=O)O)OC1C(O)C(O)CO (stereo not given) [N-Acetylneuraminic acid] |
| 11.4 min | NC(Cc1c[nH]c2ccccc12)C(=O)O (stereo not given) [TRYPTOPHAN] |
| 11.2 min | CCCCC(N)C(=O)O (stereo not given) [NORLEUCINE] |
| 17 min | NC(CO)Cc1cnc[nH]1 (stereo not given) [HISTIDINOL] |
| 1.69 min | O=C(O)CCc1ccccc1 [hydrocinnamic acid] |
| 2.18 min | O=C(O)C(=O)Cc1ccccc1 [PHENYLPYRUVATE] |
| 17.4 min | NCCCCN [PUTRESCINE] |
| 14.6 min | OCC1OC(OCC2OC(OC3(CO)OC(CO)C(O)C3O)C(O)C(O)C2O)C(O)C(O)C1O (stereo not given) [RAFFINOSE] |
| 13.4 min | COC(=O)CCCN [METHYL 4-AMINOBUTYRATE-CH2] |
| 1.67 min | COC(=O)Cc1ccc(O)cc1 [Methyl 4-hydroxyphenylacetate] |

The next lines start with the compound.

| SMILES | LC retention time |
| --- | --- |
| O=Cc1ccc(O)cc1 [4-HYDROXYBENZALDEHYDE] | 1.77 min |
| CCCCCCCCCCCCCCCCCC(=O)OCC(O)COP(=O)(O)OCCN (stereo not given) [18-0_LysoPE] | 10.2 min |
| CCCCCCCCCCCCCCCC(=O)OCC(O)COP(=O)([O-])OCC[N+](C)(C)C (stereo not given) [16-0_LysoPC] | 11.2 min |
| Nc1ncnc2c1ncn2C1OC(COP(=O)(O)OP(=O)(O)OP(=O)(O)O)C(O)C1O (stereo not given) [ADENOSINE TRIPHOSPHATE] | 15.5 min |
| CN1C(=O)CCC1c1cccnc1 (stereo not given) [Cotinine] | 2.21 min |
| CC(C)(CC(=O)O)C(=O)O [2-2-Dimethylsuccinic acid] | 2.18 min |
| C=CC1=C(C)C(C=c2[nH]c(=Cc3[nH]c(C=C4NC(=O)C(C)=C4C=C)c(C)c3CCC(=O)O)c(CCC(=O)O)c2C)=NC1=O [BILIVERDIN] | 2.06 min |
| O=S(=O)(O)c1ccc(O)c(O)c1 [3-4-dihydroxybenzenesulfonic acid] | 12.8 min |
| CC1OC(n2cnc3c(N)ncnc32)C(O)C1O (stereo not given) [5'-DEOXYADENOSINE] | 2.24 min |
| Nc1ccc(C(=O)O)cn1 [6-Aminopyridine-3-carboxylic acid] | 8.01 min |
| Nc1ccn(C2OC(COP(=O)(O)OP(=O)(O)O)C(O)C2O)c(=O)n1 (stereo not given) [CYTIDINE DIPHOSPHATE] | 15.4 min |
| CS(=N)(=O)CCC(N)C(=O)O (stereo not given) [METHIONINE SULFOXIMINE] | 14.4 min |
| Nc1ncnc2c1ncn2C1OC(CO)C(OP(=O)(O)O)C1O (stereo not given) [Adenosine 3'-monophosphate free acid] | 13.2 min |
| Nc1ncnc2c1ncn2C1OC(COP(=O)(O)OP(=O)(O)O)C(O)C1O (stereo not given) [ADENOSINE 5'-DIPHOSPHATE] | 14.7 min |
| COC(=O)C(=O)OC [Dimethyl oxalate] | 2.24 min |
| CC(C)(COP(=O)(O)OP(=O)(O)OCC1OC(n2cnc3c(N)ncnc32)C(O)C1OP(=O)(O)O)C(O)C(=O)NCCC(=O)NCCS (stereo not given) [COENZYME A] | 14.3 min |
| Nc1ncnc2c1ncn2C1CC(O)C(COP(=O)(O)OP(=O)(O)O)O1 (stereo not given) [2'-DEOXYADENOSINE 5'-DIPHOSPHATE] | 14.6 min |
| Cn1cnc2nc(N)[nH]c(=O)c21 [7-methylguanine] | 9.77 min |
| COC1C(O)C(CO)OC1n1cnc2c(=O)[nH]cnc21 (stereo not given) [2'-O-Methylinosine] | 8.49 min |
| CC(=O)c1ccc(O)cc1O [2'-4'-DIHYDROXYACETOPHENONE] | 1.72 min |
| OCc1ccccc1O [2-Hydroxybenzyl alcohol ( Salicyl alcohol- Saligenin)] | 1.95 min |
| NC(C(=O)O)C(O)C(O)C(O)CO (stereo not given) [GLUCOSAMINATE] | 14.7 min |
| NCCCN [1-3-DIAMINOPROPANE] | 17.6 min |
| CN(CC(=O)O)C(=N)N [CREATINE] | 13.9 min |
| Nc1ncnc2c1ncn2C1CC(O)C(COP(=O)(O)OP(=O)(O)OP(=O)(O)O)O1 (stereo not given) [DEOXYADENOSINE TRIPHOSPHATE] | 15.7 min |
| CCCC(=O)[O-] [BUTANOATE] | 2.15 min |
| CC12CCC3c4ccc(O)cc4CCC3C1CCC2O (stereo not drawn) [ESTRADIOL-17ALPHA] | 1.7 min |

| SMILES | LC retention time |
| --- | --- |
| Cn1c(=O)c2[nH]c(=O)[nH]c2n(C)c1=O [1-3-Dimethyluric acid] | 2.19 min |
| CCCCCCCCC=CCCCCCCCC(=O)OCC(O)COP(=O)([O-])OCC[N+](C)(C)C (stereo not given) [18-1_LysoPC] | 11.2 min |
| CC(C)C(O)C(=O)O (stereo not given) | 1.94 min |
| O=C(OC1Cc2c(O)cc(O)cc2OC1c1cc(O)c(O)c(O)c1)c1cc(O)c(O)c(O)c1 (single isomer, unassigned; (-)) [(-)-Epigallocatechin gallate] | 12.4 min |
| NC1(C(=O)O)CC1 [1-AMINOCYCLOPROPANECARBOXYLATE] | 13.5 min |
| Oc1ccc2[nH]ccc2c1 [5-Hydroxyindole] | 2 min |
| CC(=O)C(C)O (stereo not given) [ACETOIN] | 2.12 min |
| CN1CC(=O)NC1=N [CREATININE] | 11.7 min |
| O=P(O)(O)OC1OC(CO)C(O)C(O)C1O (stereo not given) [GALACTOSE 1-PHOSPHATE] | 14.7 min |
| O=C(O)c1ccc2ccccc2c1[O-] [1-HYDROXY-2-NAPHTHOATE] | 1.77 min |
| Nc1nc2c(ncn2C2OC3COP(=O)(O)OC3C2O)c(=O)[nH]1 (stereo not given) [CYCLIC GMP] | 13.4 min |
| CC(C)(CC(=O)O)CC(=O)O [3-3-Dimethylglutaric acid] | 2.11 min |
| C#CC1(O)CCC2C3CCc4cc(O)ccc4C3CCC21C (stereo not given) [17a-Ethynylestradiol] | 1.68 min |
| Cc1cnc(C)cn1 [2-5-DIMETHYLPYRAZINE] | 2.19 min |
| CCCCCCCCCCCCCC(=O)OCC(O)COP(=O)([O-])OCC[N+](C)(C)C (stereo not given) [14-0_LysoPC] | 11.3 min |
| O=C(O)Cc1ccc(O)cc1 [4-Hydroxyphenylacetic acid] | 2.34 min |
| CC(=O)C1(O)CCC2C3CCC4=CC(=O)CCC4(C)C3C(O)CC21C (stereo not given) [21-Deoxycortisol] | 1.68 min |
| Cc1cccnc1 [3-Methylpyridine (3-Picoline)] | 2.16 min |
| CC(=O)OCC(=O)O [Acetoxyacetic acid] | 2.23 min |
| O=C(O)c1cncc(O)c1 [5-Hydroxynicotinic acid] | 6.4 min |
| O=c1[nH]cc(CO)c(=O)[nH]1 [5-HYDROXYMETHYLURACIL] | 8.25 min |
| CC(CCC(=O)O)C1CCC2C3C(=O)CC4CC(O)CCC4(C)C3CC(=O)C12C (stereo not given) [5b-cholanic acid-3a-OL-7-12-DIONE] | 1.92 min |
| CC1NC(=O)NC1CCCCCC(=O)O (stereo not given) [DETHIOBIOTIN] | 2.13 min |
| CC(=O)OCC[N+](C)(C)C [ACETYLCHOLINE+C2H2O4] | 10 min |
| NC(C(=O)O)c1ccccc1 (stereo not given) [2-Phenylglycine] | 11.8 min |
| CC(C)CC(O)C(=O)O (stereo not given) [2-Hydroxyisocaproic acid] | 1.91 min |
| CC(N)(Cc1cnc[nH]1)C(=O)O (racemic) [Alpha-methyl-DL-histidine dihydrochloride] | 15.5 min |
